According to patent US12492169B2, “Aminopyridine compound and application thereof” (priority 2020, dated 2025):
Converted amounts (≈) assume the structure as drawn. “And” between values parts separate entries of the source, which are not always exact repeats. Equal values may be shown once. Read-outs that look alike come from different tables or passages of the source.

Experiments:
[1] = Pharmacokinetic evaluation in rats (IV, PO); format: in vivo, Sprague-Dawley strain rats; conditions: rat plasma
Source text: (§1) Experimental Purpose: To evaluate the druggability of the compounds by measuring its pharmacokinetic properties in different animal species.
(§2) Experimental materials: CD-1 mice, Sprague-Dawley strain rats, beagle dogs, and crab-eating macaques.
(§3) Drug preparation: An appropriate amount of sample was weighed and then prepared into a clear or suspended solution.
(§4) Experimental procedure: The animal pharmacokinetic characteristics after intravenous injection and oral administration of the compound were tested using a standard protocol. The candidate compound was prepared as a clear solution (for intravenous injection) or a homogeneous suspension (for oral administration) during the experiment and administered to the animals as a single dose. Whole blood samples were collected at 0.083, 0.25, 0.5, 1, 2, 4, 8, and 24 hours, centrifuged at 3200 g for 10 minutes to separate the supernatant to obtain plasma samples. The plasma concentration was quantitatively analyzed by LC-MS/MS analysis method and pharmacokinetic parameters were calculated, such as peak concentration, peak time, clearance rate, half-life, area under the drug-time curve, etc.

[2] = Pharmacokinetic evaluation in dogs (IV, PO); format: in vivo, beagle dogs; conditions: dog plasma
Source text: as §1, §2, §3, §4

in vivo = test: in vivo; design: species or system crab-eating macaques
Source text: as §1, §2, §3, §4

[3] = test system: Candida albicans ATCC MYA-2876; test: Minimum inhibitory concentration (MIC) test against fungi; format: cell-based; conditions: ≥50% growth inhibition by eye, three independent experiments
Procedure: (§5) To test the minimum inhibitory concentration (MIC) and minimum effective concentration (MEC) of the drug against fungi.
(§6) Experimental strains: Candida parapsilosis ATCC 22019; Candida albicans ATCC MYA-2876; Candida albicans WX-CA009; Candida glabrata ATCC15126; Candida tropicalis ATCC 750;
(§7) Test medium: RPMI1640 (containing 0.165 M MOPS, pH7.0)
(§8) On the day of the experiment, the compound in the bottle was dissolved in 100% DMSO to a stock solution concentration of 6.24 mg/mL. Then, the mixture was 10-fold diluted with DMSO to 0.624 mg/mL for use.
(§9) A 2-fold gradient dilution of the compound solution (0.624 mg/mL) was performed using DMSO on a 96-microwell plate (V-bottom) to obtain 100× working solutions (wells 1 to 11). 624, 312, 156, 78, 39, 20, 10, 5, 2.5, 1.25, 0.625 μg/mL. 100% DMSO was used as a positive control (well 12). This was the compound stock plate.
(§10) Candida parapsilosis ATCC 22019 and Candida albicans ATCC MYA-2876; Candida albicans WX-CA009; Candida glabrata ATCC15126; Candida tropicalis ATCC 750 frozen at −80° C. were streaked on SDA plates and incubated aerobically in a 35±2° C. incubator for 24 hours.
(§11) On the day of the experiment, for strains Candida parapsilosis ATCC 22019, Candida albicans ATCC MYA-2876; Candida albicans WX-CA009; Candida glabrata ATCC15126; Candida tropicalis ATCC 750 and Cryptococcus neoformans H99 ATCC 208821, the plates were taken out and the clones on the plates were picked, suspended in normal saline, and then the turbidity of the fungal suspension was adjusted to OD600=0.2 using a turbidimeter. The fungal suspension contained about 3.0×10^6 CFU/mL. Then the turbidity-adjusted fungal suspension was diluted with a test medium to a concentration of about 3.0×10^3 CFU/mL. This was the inoculum.
(§12) 2 μL of 100× working solution from the compound stock plate (prepared in 3.1) was transferred to a round-bottomed 96-well plate (containing 98 μL of test medium), and then 100 μL of fungus inoculum (prepared in 3.2) was added to each well to obtain a MIC test plate. Therefore, the final test concentrations of the compounds were 6.24, 3.12, 1.56, 0.78, 0.39, 0.20, 0.10, 0.05, 0.025, 0.0125, 0.006 μg/mL. 1% DMSO was used as a growth control.
(§13) For strains Candida parapsilosis ATCC 22019; Candida albicans ATCC MYA-2876; Candida albicans WX-CA009; Candida glabrata ATCC15126; Candida tropicalis ATCC 750, all test plates were incubated aerobically in a 35±2° C. incubator for 24 hours.
(§14) After incubation, according to the criteria in Table 1 below, the test plate was observed by eye or microscope to determine the MIC (g/mL) and MEC (g/mL) of the test compound against yeast and mold.

[4] = test system: Candida albicans WX-CA009; test: as above; format: cell-based; conditions: ≥50% growth inhibition by eye, three independent experiments
Procedure: as §5, §6, §7, §8, §9, §10, §11, §12, §13, §14

[5] = test system: Candida glabrata ATCC15126; test: as above; format: cell-based; conditions: ≥50% growth inhibition by eye, three independent experiments
Procedure: as §5, §6, §7, §8, §9, §10, §11, §12, §13, §14

[6] = test system: Candida parapsilosis ATCC 22019; test: as above; format: cell-based; conditions: ≥50% growth inhibition by eye, three independent experiments (1st, 2nd, 3rd time)
Procedure: as §5, §6, §7, §8, §9, §10, §11, §12, §13, §14

[7] = test system: Cryptococcus neoformans H99 ATCC 208821; test: as above; format: cell-based; conditions: ≥50% growth inhibition by eye, three independent experiments
Procedure: as §5
Cryptococcus neoformans H99 ATCC 208821;
as §7, §8, §9
Cryptococcus neoformans H99 ATCC 208821 frozen at −80° C. was streaked on SDA plates and incubated aerobically in a 35±2° C. incubator for 48 hours.
as §11, §12
For Cryptococcus neoformans H99 ATCC 208821, all test plates were incubated aerobically in a 35±2° C. incubator for 72 hours.
as §14

[8] = test system: Aspergillus flavus ATCC MYA-1004; test: Minimum effective concentration (MEC) test against fungi; format: cell-based; conditions: change of hyphae morphology by microscope, 48 hours, three independent experiments
Procedure: as §5
(§15) Aspergillus fumigatus ATCC-MYA-4609; Aspergillus flavus ATCC MYA-1004
as §7, §8, §9
(§16) Aspergillus fumigatus ATCC-MYA-4609; Aspergillus flavus ATCC MYA-1004 frozen at −80° C. were streaked on SDA plates and incubated aerobically in a 30±2° C. incubator for 6 days.
(§17) For strains Aspergillus fumigatus ATCC MYA-4609; Aspergillus flavus ATCC MYA-1004, after taking out the plate, 3 mL of 0.9% normal saline containing 0.1% Tween20 was added to the plate and the spores were gently collected. The spores were counted with a hemocytometer and the spore suspension was adjusted to about 5×10^6 spores/mL. Then the spore suspension was diluted to 0.8 to 1×10^5 spores/mL with a test medium.
as §12
(§18) For mold strains Aspergillus fumigatus ATCC-MYA-4609 and Aspergillus flavus ATCC MYA-1004, all test plates were incubated aerobically in a 35±° C. incubator for 48 hours.
as §14

[9] = test system: Aspergillus fumigatus ATCC-MYA-4609; test: as above; format: cell-based; conditions: change of hyphae morphology by microscope, 48 hours, three independent experiments
Procedure: as §5, §15, §7, §8, §9, §16, §17, §12, §18, §14

[10] = test system: Candida tropicalis ATCC 750; test: Minimum inhibitory concentration (MIC) test against fungi; format: cell-based; conditions: Candida tropicalis, ATCC750, 24 h, ≥50% growth inhibition by eye, three independent experiments, read-out: MIC
Procedure: as §5, §6, §7, §8, §9, §10, §11, §12, §13, §14

[11] = Mouse pharmacokinetic evaluation, intraperitoneal injection after oral ABT; format: in vivo; conditions: ip, female CD-1 mice, ABT 50 mg/kg orally 2 hours before, plasma; for AUC: read-out: Concentration Integral AUC; for Cmax: read-out: Peak Concentration Cmax; for Tmax: read-out: Peak Time Tmax
Source text: Experimental Purpose: Using female CD-1 mice as test animals, LC/MS/MS was used to measure the plasma drug concentration at different times after intraperitoneal injection of the test compound. To study the pharmacokinetic behavior of the test compound in mice and evaluate its pharmacokinetic characteristics. Drug preparation: An appropriate amount of sample was weighed and then prepared into a clear or suspended solution. Administration scheme: Two healthy female CD-1 mice were taken, purchased from Beijing Vital River Laboratory Animal Technology Co., Ltd., and given a normal diet. The drug was administered through intraperitoneal injection. Operational steps: 2 hours before administration, 1-aminobenzotriazole (ABT) was orally administered (50 mg/kg, 5 mg/mL in normal saline), and after animal administration, about 30 μL of blood was collected at 0.083, 0.25, 0.5, 1, 2, 4, 8, and 24 hours, and placed in commercially available anticoagulant tubes pre-added with EDTA-K2. The tubes were centrifuged for 10 minutes to separate the plasma, and the plasma was stored at −60° C. The content of the target compound in the plasma sample was determined by LC/MS/MS method, and the experimental results are shown in Table 3.

[12] = Candida albicans, 24 h, read-out: MIC
[13] = Candida albicans, WXCA009, 24 h, read-out: MIC
[14] = Nakaseomyces glabratus, ATCC15126, 24 h, read-out: MIC
[15] = Lodderomyces parapsilosis, ATCC22019, 24 h, read-out: MIC
[16] = Cryptococcus neoformans, ATCC208821, 72 h, read-out: MIC

| MIC [3, 12] | MIC [4, 13] | MIC ([4]; 24 hours) | MIC [5, 14] | MIC [6, 15] | MIC [7, 16] | MIC [10] | SMILES | MEC [8] | MEC [9] | further results |
| --- | --- | --- | --- | --- | --- | --- | --- | --- | --- | --- |
| – | – | – | – | – | – | – | Nc1ccc(C#CCc2ccc(COc3ccccn3)cc2)c[n+]1COP(=O)(O)O [WX013] | – | – | time to complete decomposition into the parent drug WX004 [1]: ≤ 0.5 h; time to complete decomposition into the parent drug WX004 [2]: ≤ 0.5 h; time to complete decomposition into the parent drug WX004 (in vivo; crab-eating macaque, crab-eating macaque (monkey)): ≤ 0.5 h; F % (in vivo; monkey, po, 13.5 mg/kg): 89% |
| 0.05 µg/mL (≈ 0.15 µM) | 0.1 µg/mL (≈ 0.3 µM) | 0.05 µg/mL (≈ 0.15 µM) | 1.56 µg/mL (≈ 4.68 µM) | 0.2 µg/mL (≈ 0.6 µM) | > 6.24 µg/mL | – | Nc1ccc(C#CCc2ccc(COc3ccccn3)cc2)c(F)n1 [WX005] | 3.12 µg/mL | 0.39 µg/mL and 0.2 µg/mL | MIC ([3]; 24 hours): 0.1 µg/mL (≈ 0.3 µM); MIC ([6]; 24 hours): 0.1 µg/mL (≈ 0.3 µM); MIC ([7]; 72 hours): 6.24 µg/mL (≈ 18.7 µM) |
| 0.1 µg/mL (≈ 0.304 µM) | 0.05 µg/mL (≈ 0.152 µM) | – | 0.78 µg/mL (≈ 2.37 µM) | 0.1 µg/mL (≈ 0.304 µM) | 1.56 µg/mL (≈ 4.74 µM) | 0.05 µg/mL (≈ 0.152 µM) | Cc1cc(C#CCc2ccc(COc3ccccn3)cc2)cnc1N [WX007] | 0.39 µg/mL | 0.39 µg/mL | AUC ([11]; 6 mpk): 64 µM·h; Cmax ([11]; 6 mpk): 4.7 µM; Tmax ([11]; 6 mpk): 1.5 h |
| – | 0.0125 µg/mL (≈ 0.0396 µM) | 0.025 µg/mL (≈ 0.0793 µM) | 0.39 µg/mL (≈ 1.24 µM) | 0.025 µg/mL (≈ 0.0793 µM) | 0.39 µg/mL (≈ 1.24 µM) | 0.0125 µg/mL (≈ 0.0396 µM) | Nc1ncccc1C#CCc1ccc(COc2ccccn2)cc1 [WX003] | 0.2 µg/mL and 0.39 µg/mL | 0.1 µg/mL and 0.2 µg/mL | MIC ([5]; 24 hours): 0.78 µg/mL (≈ 2.47 µM); AUC ([11]; 26 mpk): 27 µM·h; Cmax ([11]; 26 mpk): 13.5 µM; Tmax ([11]; 26 mpk): 0.5 h |
